Source: patent US10112928B2, “Inhibitors of SYK” (Hoffmann-La Roche Inc., priority 2012, dated 2018)
pIC50: −log10 of the molar value. Like-named read-outs stand apart in the source and are kept apart here.

Assays:
[1] = molecular target: recombinant human SYK360-635 (Spleen Tyrosine Kinase) (Homo sapiens (Human), UniProt P43405); assay: SYK kinase assay (33P ATP incorporation into biotinylated peptide); type: biochemical; details: purified truncated SYK aa 360-635, 20 μM ATP; read-out: Syk_IC50
Protocol: Determination of IC50 of Spleen Tyrosine Kinase (SYK) Inhibition:
SYK kinase assay is a standard kinase assay adapted to a 96 well plate format. This assay is performed in 96-well format for IC50 determination with […] which represented 10 half log dilutions and a 40 μL reaction volume. The assay measures the incorporation of radiolabeled ^33P γATP into an N-terminally biotinylated peptide substrate, derived from naturally occurring phosphoacceptor consensus sequence (Biotin-11aa DY*E). Phosphorylated products were detected upon termination of reactions with EDTA and the addition of Streptavidin coated beads.
final concentration: 50 mM HEPES pH7.5
BSA: Bovine Serum Albumin Fraction V, fatty acid free (Roche Diagnostics GmbH, Cat. No. 9100221) diluted to a final concentration of 0.1%
Assay Dilution Buffer (ADB): 50 mM HEPES, 0.1 mM EGTA, 0.1 mM Na Vanadate, 0.1 mM β-glycerophosphate, 10 mM MgCl2, 1 mM DTT, 0.1% BSA, pH 7.5
Bead wash buffer: 10 g/L PBS (Phosphate buffered saline) with 2M NaCl+1% phosphoric acid.
DMSO and the mixture was incubated for 10 min at RT.
The kinase reaction was initiated by the addition of 10 μL 4× substrate cocktail containing the DYE peptide substrate [0 or 5 μM], ATP [20 μM] and ^33PγATP [2 μCi/rxn]. After incubation at 30° C. for 15 min, the reaction was terminated by the transfer of […] pf the reaction sample to a 96 well 0.65 μm Millipore MADVNOB membrane/plate containing 200 μL 5 mM EDTA and 20% Streptavidine coated beads in PBS.
The unbound radionucleotides were washed under vacuum with 3×250 μL 2M NaCl; 2×250 μL 2M NaCl+1% phosphoric acid; 1×250 μL H2O. After the last wash membrane/plates were transferred to an adaptor plate, heat dried for 15 min at 60° C., and 50 μL scintillation cocktail was added to each well and 4 h later the amount of radioactivity was counted in a top counter.

[2] = system: CD69 up-regulation on B-cell lymphocytes (CD20+) stimulated with anti-human IgM; assay: B Cell CD69 Up-Regulation Assay in Human Whole Blood; type: cell-based; details: read-out: Human whole blood IC50
Protocol: B Cell CD69 Up-Regulation Assay in Human Whole Blood
Human Blood was collected from healthy volunteers into Vacutainers (BD Biosciences, San Jose, Calif.) containing sodium heparin. Test compound was suspended in DMSO and nine half-log serial dilutions were made. The concentration of […] in the assay was 0.5%. 100 μL whole blood was pre-incubated with compound for 30 min and then stimulated with goat F(ab′)2 anti-human IgM (50 μg/mL, Southern Biotech) for 20 h. At the end of the 20 hour incubation, samples were incubated with fluorochrome-conjugated antibodies, PE mouse anti-human CD20 and APC Mouse anti-human CD69 (BD Biosciences), for 30 minutes. Samples were then lysed with Lyse solution (BD) and washed with PBS containing 2% fetal bovine serum (FBS). Fluorescent signals were acquired on flow cytometer LSR II (BD) and data were analyzed by Flow Jo. The percentage of activated (CD69hi) B-cell lymphocytes (CD20+) were determined using un-stimulated (negative control) and stimulated (positive control) wells as reference guidelines. The percentage inhibition was calculated and an IC50 curve was constructed using GraphPad Prism software with sigmoidal curve fitting.

[3] = human whole blood, anti-IgM stimulation 20 h, CD69hi CD20+ B cells

Compound: Cc1cccc(Nc2nc(CCCN)ncc2C(N)=O)c1 [Compound I-22, 2-(3-amino-propyl)-4-m-tolylamino-pyrimidine-5-carboxylic acid amide]
- pIC50 [1]: 5.60
- pIC50 [2, 3]: < 5.30

Compound: CC(C)(C)c1cccc(Nc2cc(NCCN)nnc2C(N)=O)n1 [Compound I-16, 6-(2-aminoethylamino)-4-(6-tert-butylpyridin-2-ylamino)pyridazine-3-carboxamide]
- pIC50 [1]: 7.89
- pIC50 [2, 3]: 6.22

Compound: Cc1ccc(Nc2cc(NC(CN)CC(C)C)nnc2C(N)=O)nc1C(C)C (stereo not shown) [Compound I-15, 6-(1-aminomethyl-3-methyl-butylamino)-4-(6-isopropyl-5-methyl-pyridin-2-ylamino)-pyridazine-3-carboxylic acid amide]
- pIC50 [1]: 8.70
- pIC50 [2, 3]: 6.03

Compound: Cc1cccc(Nc2cc(Oc3cccc(C#N)c3)nnc2C(N)=O)n1 [Compound I-2, 6-(3-cyanophenoxy)-4-(6-methylpyridin-2-ylamino)pyridazine-3-carboxamide]
- pIC50 [1]: 6.02

Compound: CC(C)(C#N)c1cccc(Nc2cc(NCCN)nnc2C(N)=O)n1 [Compound I-21, 6-(2-aminoethylamino)-4-(6-(2-cyanopropan-2-yl)pyridin-2-ylamino)pyridazine-3-carboxamide]
- pIC50 [2, 3]: 6.24

Compound: CC(C)(C)c1nccc(Nc2cc(NCCN)nnc2C(N)=O)n1 [Compound I-28, 6-(2-aminoethylamino)-4-(2-tert-butylpyrimidin-4-ylamino)pyridazine-3-carboxamide]
- pIC50 [2, 3]: 6.45

Compound: Cc1cccc(Nc2cc(Oc3ccccc3)nnc2C(N)=O)n1 [Compound I-1, 4-(6-methylpyridin-2-ylamino)-6-phenoxypyridazine-3-carboxamide]
- pIC50 [1]: 5.88

Compound: Cc1ccc(Nc2cc(OCCN)nnc2C(N)=O)nc1C [Compound I-13, 6-(2-aminoethoxy)-4-(5,6-dimethylpyridin-2-ylamino)pyridazine-3-carboxamide]
- pIC50 [2, 3]: < 4.30

Compound: CC(C)(C)c1cccc(Nc2cc(NCC3(N)CC3)nnc2C(N)=O)n1 [Compound I-19, 6-((1-aminocyclopropyl)methylamino)-4-(6-tert-butylpyridin-2-ylamino)pyridazine-3-carboxamide]
- pIC50 [1]: 6.87
- pIC50 [2, 3]: 5.22

Compound: Cc1cccc(Nc2cc(Oc3cccnc3)nnc2C(N)=O)n1 [Compound I-5, 4-(6-methylpyridin-2-ylamino)-6-(pyridin-3-yloxy)pyridazine-3-carboxamide]
- pIC50 [1]: 5.82

Compound: CCc1ccccc1Oc1cc(Nc2cccc(C)n2)c(C(N)=O)nn1 [Compound I-7, 6-(2-ethylphenoxy)-4-(6-methylpyridin-2-ylamino)pyridazine-3-carboxamide]
- pIC50 [1]: 6.33

Compound: Cc1cccc(Nc2cc(Oc3ccccc3C)nnc2C(N)=O)n1 [Compound I-8, 4-(6-methylpyridin-2-ylamino)-6-(o-tolyloxy)pyridazine-3-carboxamide]
- pIC50 [1]: 6.43
- pIC50 ([2]; Homo sapiens, 20 h): < 5.30

Compound: Cc1cccc(Nc2cc(N[C@@H]3CCCC[C@@H]3N)ccc2C(N)=O)n1 [Compound I-30, 4-((1R,2S)-2-amino-cyclohexylamino)-2-(6-methyl-pyridin-2-ylamino)-benzamide]
- pIC50 [1]: 7.38
- pIC50 [2, 3]: 6.26

Compound: COc1nc(Nc2cc(NCCN)nnc2C(N)=O)ccc1C(C)C [Compound I-31, 6-(2-aminoethylamino)-4-(5-isopropyl-6-methoxypyridin-2-ylamino)pyridazine-3-carboxamide]
- pIC50 [1]: 8.03
- pIC50 [2, 3]: 5.82

Compound: NCCNc1cc(Nc2cccc(C(F)(F)F)n2)c(C(N)=O)nn1 [Compound I-25, 6-(2-aminoethylamino)-4-(6-(trifluoromethyl)pyridin-2-ylamino)pyridazine-3-carboxamide]
- pIC50 [2, 3]: 7.28

Compound: Cc1cc(C)cc(Nc2cc(Cl)nnc2C(N)=O)c1 [Compound I-14, 6-chloro-4-(3,5-dimethylphenylamino)pyridazine-3-carboxamide]
- pIC50 [1]: 6.91
- pIC50 [2, 3]: < 4.30

Compound: NC(=O)c1n[nH]c(=O)cc1Nc1cccc(C2CC2)n1 [Compound I-11, 4-(6-cyclopropyl-pyridin-2-ylamino)-6-oxo-1,6-dihydro-pyridazine-3-carboxylic acid amide]
- pIC50 [1]: 6.65
- pIC50 [2, 3]: < 5.30

Compound: Cc1cccc(Nc2cc(Oc3cccc(C(C)(C)N)c3)nnc2C(N)=O)n1 [Compound I-3, 6-(3-(2-aminopropan-2-yl)phenoxy)-4-(6-methylpyridin-2-ylamino)pyridazine-3-carboxamide]
- pIC50 [1]: 5.65

Compound: COC(C)(C)c1cccc(Nc2cc(NCCN)nnc2C(N)=O)n1 [Compound I-29, 6-(2-aminoethylamino)-4-(6-(2-methoxypropan-2-yl)pyridin-2-ylamino)pyridazine-3-carboxamide]
- pIC50 [2, 3]: 5.74

Compound: Cc1cccc(Nc2cc(Oc3ccccc3C3CC3)nnc2C(N)=O)n1 [Compound I-10, 6-(2-cyclopropylphenoxy)-4-(6-methylpyridin-2-ylamino)pyridazine-3-carboxamide]
- pIC50 [1]: 5.66

Compound: Cc1cccc(Nc2cc(Oc3ccc(Cl)cc3C#N)nnc2C(N)=O)n1 [Compound I-9, 6-(4-chloro-2-cyanophenoxy)-4-(6-methylpyridin-2-ylamino)pyridazine-3-carboxamide]
- pIC50 [1]: 5.85

Compound: Cc1ccc(Nc2cc(NCCN)nnc2C(N)=O)nc1N(C)C [Compound I-27, 6-(2-aminoethylamino)-4-(6-(dimethylamino)-5-methylpyridin-2-ylamino)pyridazine-3-carboxamide]
- pIC50 [2, 3]: 6.54

Compound: CC(C)(O)c1cccc(Nc2cc(NCCN)nnc2C(N)=O)n1 [Compound I-23, 6-(2-aminoethylamino)-4-(6-(2-hydroxypropan-2-yl)pyridin-2-ylamino)pyridazine-3-carboxamide]
- pIC50 [2, 3]: 5.69

Compound: CC(C)Oc1cccc(Nc2cc(NCCN)nnc2C(N)=O)n1 [Compound I-33, 6-(2-aminoethylamino)-4-(6-isopropoxypyridin-2-ylamino)pyridazine-3-carboxamide]
- pIC50 [1]: 7.90
- pIC50 [2, 3]: 6.25

Compound: Cc1cccc(Nc2cc(Oc3ccccc3C#N)nnc2C(N)=O)n1 [Compound I-6, 6-(2-cyanophenoxy)-4-(6-methylpyridin-2-ylamino)pyridazine-3-carboxamide]
- pIC50 [1]: 6.41

Compound: Cc1cc(C)nc(Nc2cc(NCCN)nnc2C(N)=O)n1 [Compound I-24, 6-(2-aminoethylamino)-4-(4,6-dimethylpyrimidin-2-ylamino)pyridazine-3-carboxamide]
- pIC50 [1]: 5.40
- pIC50 [2, 3]: < 5.30
